How the values were obtained:
USP1-UAF1 = USP1-UAF1 (Homo sapiens, UniProt O94782); experiment: Ubiquitin Rhodamine assay of USP1-UAF1 activity; type: biochemical
Procedure: Certain compounds of the disclosure were assessed for USP1-UAF1 activity in a Ubiquitin Rhodamine assay as described in Biology Example 1.

HCC1954 = experiment: Viability assay, BRCA1 WT cell line HCC1954; type: cell-based; conditions: Homo sapiens, HCC1954, viability, read-out: HCC1954 rel IC50
Source text: (§1) Table 1 also indicates IC50 values in a viability assay for a non-isogenic pair of BRCA1 mutant (column 5-MDA-MB-436) and BRCA1 WT (column 6—HCC1954) cell lines. These values indicate the effect of treatment with compound on cell survival.

MDA-MB-436 = experiment: Viability assay, BRCA1 mutant cell line MDA-MB-436; type: cell-based; conditions: Homo sapiens, MDA-MB-436, viability, BRCA1 mutant MDA-MB-436; read-out: MDA-MB-436 rel IC50
Source text: as §1

monoubiquitinated PCNA = experiment: AlphaLISA assay measuring monoubiquitinated PCNA in MDA-MB-436; type: cell-based; conditions: Homo sapiens, MDA-MB-436, monoubiquitinated PCNA, read-out: Alpha Lisa IC50
Source text: Table 1 also indicates IC50 values for exemplary compounds in an AlphaLISA assay measuring monoubiquitinated PCNA in a BRCA1 mutant cell line (MDA-MB-436; column 7).

USP1-UAF1, sequence (O94782 whole entry): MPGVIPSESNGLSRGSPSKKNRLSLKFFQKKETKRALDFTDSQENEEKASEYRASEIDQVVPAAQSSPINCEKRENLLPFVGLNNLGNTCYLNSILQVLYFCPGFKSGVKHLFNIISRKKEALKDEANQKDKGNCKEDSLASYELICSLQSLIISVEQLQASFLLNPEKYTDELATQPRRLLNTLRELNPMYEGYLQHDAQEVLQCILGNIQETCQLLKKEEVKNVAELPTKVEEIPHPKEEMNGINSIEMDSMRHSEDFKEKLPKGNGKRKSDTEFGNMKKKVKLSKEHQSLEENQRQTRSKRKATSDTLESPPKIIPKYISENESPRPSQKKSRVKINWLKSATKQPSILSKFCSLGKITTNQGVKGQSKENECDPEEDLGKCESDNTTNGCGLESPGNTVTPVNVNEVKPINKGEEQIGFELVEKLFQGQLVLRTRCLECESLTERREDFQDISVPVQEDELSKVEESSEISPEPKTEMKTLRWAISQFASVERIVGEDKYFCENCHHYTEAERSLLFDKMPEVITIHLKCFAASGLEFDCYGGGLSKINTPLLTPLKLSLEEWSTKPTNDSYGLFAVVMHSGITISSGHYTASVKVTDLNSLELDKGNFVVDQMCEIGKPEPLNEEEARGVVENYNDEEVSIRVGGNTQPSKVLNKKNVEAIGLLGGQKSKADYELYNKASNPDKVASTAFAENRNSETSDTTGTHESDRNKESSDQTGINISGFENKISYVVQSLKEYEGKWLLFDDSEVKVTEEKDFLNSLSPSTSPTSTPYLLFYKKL
USP1-UAF1, sequence (Q8TAF3 whole entry partner): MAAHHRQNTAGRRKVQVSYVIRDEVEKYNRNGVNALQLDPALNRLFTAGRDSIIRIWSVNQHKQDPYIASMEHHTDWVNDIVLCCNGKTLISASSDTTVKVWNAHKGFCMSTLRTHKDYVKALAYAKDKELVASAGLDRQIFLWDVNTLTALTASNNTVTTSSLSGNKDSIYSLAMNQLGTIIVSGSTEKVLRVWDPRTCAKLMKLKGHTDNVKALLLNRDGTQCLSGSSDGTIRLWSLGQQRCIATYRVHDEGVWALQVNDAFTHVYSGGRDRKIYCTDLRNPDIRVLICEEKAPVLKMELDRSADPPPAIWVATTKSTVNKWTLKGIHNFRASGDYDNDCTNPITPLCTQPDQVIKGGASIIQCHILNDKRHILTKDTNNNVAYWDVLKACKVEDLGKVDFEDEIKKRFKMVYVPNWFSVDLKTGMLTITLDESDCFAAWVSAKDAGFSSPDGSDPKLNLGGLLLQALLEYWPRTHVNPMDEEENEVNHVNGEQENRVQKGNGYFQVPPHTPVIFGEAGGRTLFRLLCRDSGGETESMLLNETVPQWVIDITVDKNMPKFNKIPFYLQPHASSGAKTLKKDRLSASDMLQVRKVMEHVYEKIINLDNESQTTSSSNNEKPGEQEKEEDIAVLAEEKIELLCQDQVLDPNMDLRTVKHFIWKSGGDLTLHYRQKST

IC50 (USP1-UAF1) [nM] | IC50 (HCC1954) [nM] | IC50 (MDA-MB-436) [nM] | IC50 (monoubiquitinated PCNA) [nM] | Structure (SMILES)
30 to 100 | 250 to 10000 | 100 to 250 | 100 to 250 | CCOc1cc(C(F)(F)F)nn1-c1ccc(Cn2c(=N)n(CC(F)(F)F)c3cnc(-c4c(C(F)(F)F)cnn4C)nc32)cc1 [Example T-138, 9-[[4-[5-ethoxy-3-(trifluoromethyl)pyrazol-1-yl]phenyl]methyl]-2-[2-methyl-4-(trifluoromethyl)pyrazol-3-yl]-7-(2,2,2-trifluoroethyl)purin-8-imine]
100 to 10000 | ≥ 10000 | 250 to 10000 | 250 to 10000 | CC(C)n1cc(C(F)(F)F)nc1-c1ccc(Cn2c(=N)n(C)c3cnc(-c4cccnc4OC(F)F)nc32)cc1 [Example T-051, 2-[2-(difluoromethoxy)-3-pyridyl]-9-[[4-[1-isopropyl-4-(trifluoromethyl)imidazol-2-yl]phenyl]methyl]-7-methyl-purin-8-imine]
< 30 | 250 to 10000 | < 100 | < 100 | Cc1cc(Cl)nn1-c1ccc(Cn2c(=N)n(C)c3cnc(-c4ccccc4C(C)C)nc32)cc1 [Example A-21, 9-(4-(3-chloro-5-methyl-1H-pyrazol-1-yl)benzyl)-2-(2-isopropylphenyl)-7-methyl-7,9-dihydro-8H-purin-8-imine]
30 to 100 | ≥ 10000 | < 100 | < 100 | COc1ncnc(C2CC2)c1-c1ncc2c(n1)n(Cc1cc(F)c(-c3nc(C(F)(F)F)cn3C)c(F)c1)c(=N)n2CC(F)(F)F [Example T-126, 2-(4-cyclopropyl-6-methoxy-pyrimidin-5-yl)-9-[[3,5-difluoro-4-[1-methyl-4-(trifluoromethyl)imidazol-2-yl]phenyl]methyl]-7-(2,2,2-trifluoroethyl)purin-8-imine]
< 30 | 250 to 10000 | < 100 | < 100 | CC(C)c1ccccc1-c1ncc2c(n1)n(C1(c3ccc(-c4nc(C(F)(F)F)cn4C)cc3)CC1)c(=N)n2C [Example T-003, 2-(2-isopropylphenyl)-7-methyl-9-[1-[4-[1-methyl-4-(trifluoromethyl)imidazol-2-yl]phenyl]cyclopropyl]purin-8-imine]
30 to 100 | 250 to 10000 | 250 to 10000 | 100 to 250 | C=C(C)c1ccc(F)cc1-c1nc(C)c2c(n1)n(Cc1ccc(-c3nc(C(F)(F)F)cn3C)cc1)c(=N)n2C [Example A-42, 2-(5-fluoro-2-(prop-1-en-2-yl)phenyl)-6,7-dimethyl-9-(4-(1-methyl-4-(trifluoromethyl)-1H-imidazol-2-yl)benzyl)-7,9-dihydro-8H-purin-8-imine]
< 30 | 250 to 10000 | 100 to 250 | < 100 | Cc1nc(-c2ccccc2-c2ccccc2Cl)nc2c1n(C)c(=N)n2Cc1ccc(-c2nc(C(F)(F)F)cn2C)cc1 (single isomer, unassigned) [Example A-15c, 2-(2′-chloro-[1,1′-biphenyl]-2-yl)-6,7-dimethyl-9-(4-(1-methyl-4-(trifluoromethyl)-1H-imidazol-2-yl)benzyl)-7,9-dihydro-8H-purin-8-imine]
30 to 100 | 250 to 10000 | 100 to 250 | 100 to 250 | Cc1ccnc(OC(F)F)c1-c1ncc2c(n1)n(Cc1ccc(-c3nc(C(F)(F)F)cn3C)cc1)c(=N)n2CC(F)(F)F [Example T-115, 2-(2-(difluoromethoxy)-4-methylpyridin-3-yl)-9-(4-(1-methyl-4-(trifluoromethyl)-1H-imidazol-2-yl)benzyl)-7-(2,2,2-trifluoroethyl)-7H-purin-8(9H)-imine]
100 to 10000 | 250 to 10000 | 250 to 10000 | 250 to 10000 | COc1cc(C)n(-c2ccc(Cn3c(=N)n(C)c4cnc(-c5ccccc5C5CC5)nc43)cc2)n1 [Example T-020]
30 to 100 | ≥ 10000 | 100 to 250 | 250 to 10000 | Cn1cc(C(F)(F)F)nc1-c1ccc(Cn2c(=N)n(CC(F)F)c3cnc(-c4ccccc4C(F)(F)F)nc32)cc1 [Example T-049]
30 to 100 | ≥ 10000 | 100 to 250 | 100 to 250 | COc1nccc(F)c1-c1ncc2c(n1)n(Cc1ccc(-c3nc(C(F)(F)F)cn3C)cc1)c(=N)n2C [Example T-065]
100 to 10000 | ≥ 10000 | 250 to 10000 | 250 to 10000 | CN(C)c1ncccc1-c1ncc2c(n1)n(Cc1ccc(-c3nc(C(F)(F)F)cn3C)cc1)c(=N)n2C [Example T-034]
30 to 100 | 250 to 10000 | 250 to 10000 | 250 to 10000 | CC(C)c1ccccc1-c1ncc2c(n1)n(Cc1ccc(-n3ccc(C(F)(F)F)n3)cc1)c(=N)n2C [Example A-24, 2-(2-isopropylphenyl)-7-methyl-9-(4-(3-(trifluoromethyl)-1H-pyrazol-1-yl)benzyl)-7,9-dihydro-8H-purin-8-imine]
< 30 | ≥ 10000 | < 100 | < 100 | COc1ncnc(C2CC2)c1-c1ncc2c(n1)n(Cc1ccc(-c3nc(C(F)(F)F)cn3C3CCC3)cc1)c(=N)n2CC(F)(F)F [Example T-120, 9-[[4-[1-cyclobutyl-4-(trifluoromethyl)imidazol-2-yl]phenyl]methyl]-2-(4-cyclopropyl-6-methoxy-pyrimidin-5-yl)-7-(2,2,2-trifluoroethyl)purin-8-imine]
30 to 100 | 250 to 10000 | 250 to 10000 | 100 to 250 | CC(C)c1ccccc1-c1nc(-c2ccccn2)c2c(n1)n(Cc1ccc(-c3nc(C(F)(F)F)cn3C)cc1)c(=N)n2C [Example A-35, 2-(2-isopropylphenyl)-7-methyl-9-(4-(1-methyl-4-(trifluoromethyl)-1H-imidazol-2-yl)benzyl)-6-(pyridin-2-yl)-7,9-dihydro-8H-purin-8-imine]
30 to 100 | ≥ 10000 | < 100 | < 100 | CCOc1cc(C(F)(F)F)nn1-c1ccc(Cn2c(=N)n(CC(F)(F)F)c3cnc(-c4c(OC)ncnc4C4CC4)nc32)cc1 [Example T-114]
100 to 10000 | ≥ 10000 | 250 to 10000 | 250 to 10000 | CC(C)c1ccccc1-c1ncc2c(n1)n(CC1CCN(c3nc(Cl)cn3C)CC1)c(=N)n2C [Example A-3, 9-((1-(4-chloro-1-methyl-1H-imidazol-2-yl)piperidin-4-yl)methyl)-2-(2-isopropylphenyl)-7-methyl-7H-purin-8(9H)-imine]
30 to 100 | ≥ 10000 | 100 to 250 | < 100 | COc1ncnc(C(F)(F)F)c1-c1ncc2c(n1)n(Cc1ccc(-c3nc(C(F)(F)F)cn3C)cc1)c(=N)n2C [Example T-038, 2-[4-methoxy-6-(trifluoromethyl)pyrimidin-5-yl]-7-methyl-9-[[4-[1-methyl-4-(trifluoromethyl)imidazol-2-yl]phenyl]methyl]purin-8-imine]
100 to 10000 | ≥ 10000 | < 100 | < 100 | COc1ncnc(C2CC2(F)F)c1-c1ncc2c(n1)n(Cc1ccc(-c3nc(C(F)(F)F)cn3C)cc1)c(=N)n2CC(F)(F)F (stereo not shown) [Example T-116, 2-[4-(2,2-difluorocyclopropyl)-6-methoxy-pyrimidin-5-yl]-9-[[4-[1-methyl-4-(trifluoromethyl)imidazol-2-yl]phenyl]methyl]-7-(2,2,2-trifluoroethyl)purin-8-imine]
